Our source for the viability and IC50 values is patent publication US20260001854A1, “CONJUGATE COMPOUND COMPRISING 13-CIS-RETINOIC ACID AND ASCORBIC ACID” (Mastery Biotech CO., LTD., priority 2023, published 2026).

The nature of data set [1]: MTT cell viability (cytotoxicity) assay, A549. It counts as cell-based, human. As to conditions: human, A549 cells. The protocol: (§1) Cells were cultured in indicated growth medium with 10% FBS and were maintained in a humidified incubator at 37° C. containing 5% CO2. Formula A2 compound was weighted and dissolved in DMSO/EtOH mixture solvent of 1/4 (v/v) ratio to a final concentration of 200 mM at the day of treatment. One day before treatment, cells at log-phase of growth were harvested, counted, and seeded in a 96-well plate at a density of 5×10^3 cells/[…]/well. After cultivation overnight, assumed wells were gently added with […] of fresh media prepared with the serial concentration from 40 to 1000 μM to bring the working concentration from 20 to 500 μM subsequently. The control plate without Formula A2 was carried out as the same procedure as above but […] of fresh media prepared with the equal solvent volume added. All plates were mixed gently and incubated for next 24 hours.
(§2) At the day of cell viability detection, tested wells were added […] of MTT working solution and incubated at 37° C. for 3 hours. Spectrophotometric absorbance readings were recorded at wavelength of 540 nm. Readings from blank wells (wells contains only cell culture medium without cells) and negative control wells (wells with cell and culture medium without Formula A2 and solvent treatment) were recorded and used for calibration. After all readings of OD540 subtracted the blank value, the percentage of cell viability were calculated using the following formula: […]
(§3) The concentration of Compound A that inhibited cell survival to 50% (IC50) was determined by an online tool “Quest Graph™ IC50 Calculator.” AAT Bioquest, Inc., 26 June. 2024, www.aatbio.com/tools/ic50-calculator.

The next data set deals with A549. Put plainly: MTT cell viability (cytotoxicity) assay, A549. It counts as cell-based, human. Conditions: Homo sapiens; A549 cell line, estimated from cell viability values with Quest Graph IC50 Calculator; read-out: IC50 (concentration that inhibited cell survival to 50%). On the procedure:
as §1, §2, §3

Data set [2] is described as follows: MTT cell viability (cytotoxicity) assay, A549. It counts as cell-based. As to conditions: human, A549 cells.
Data set [3] can be described thus: MTT cell viability (cytotoxicity) assay, PANC-1. As to conditions: human, PANC-1 cells, mean of 6 wells. It is filed as cell-based. On the procedure:
as §1, §2, §3

Data set [4] can be described thus: MTT cell viability (cytotoxicity) assay, Caco-2. It is filed as cell-based. As to conditions: human, mean of 6 wells. The protocol:
as §1, §2, §3

Molecules are shown by their SMILES.

Turning to `CC1=C(/C=C/C(C)=C/C=C/C(C)=C\C(=O)O)C(C)(C)CCC1` [13-cis retinoic acid, (2Z,4E,6E,8E)-3,7-dimethyl-9-(2,6,6-trimethylcyclohex-1-en-1-yl)nona-2,4,6,8-tetraenoic acid, reference compound], the viability – broadly, a read-out of living cells in per cent, often relative to untreated cells – at 24 h, 30 μM in data set [1] (13-cis RA 30 μM) was found to be 75%. In data set [1] (13-cis RA 60 μM), the viability at 24 h, 60 μM worked out at 73%. The viability at 24 h, 120 μM in data set [1] (13-cis RA 120 μM) was determined as 57%. Besides, in data set [1] (13-cis RA 240 μM), the viability at 24 h, 240 μM came to 50%. Further, the viability at 24 h, 480 μM in data set [1] (13-cis RA 480 μM) came to 50%. In addition, the IC50 with A549 is 518 µM. Moreover, in data set [2] (13-cis RA 7.5 μM), the viability at 24 h, 7.5 μM came out at 95%. For the same molecule, the viability at 24 h, 15 μM in data set [2] (13-cis RA 15 μM) was 78%. For the same molecule, the viability at 24 h, 960 μM in data set [2] (13-cis RA 960 μM) is 51%.

`CC1=C(/C=C/C(C)=C/C=C/C(C)=C\C(=O)OC2=C(O)[C@@H]([C@@H](O)CO)OC2=O)C(C)(C)CCC1` [Formula A1]: the viability at 24 h, 20 μM in data set [3] (20 μM) was determined as 69%; in data set [1] (Formula A1 20 μM, 24 hours, MTT, mean of 6 wells), 102%. Also, the viability at 24 h, 50 μM in data set [3] (50 μM) was 69%; in data set [2] (Formula A1 50 μM, 24 hours, MTT, mean of 6 wells), 94%. The viability at 24 h, 100 μM was found to be 54% in data set [3] (100 μM) and 100% in data set [1] (Formula A1 100 μM, 24 hours, MTT, mean of 6 wells). The viability at 24 h, 150 μM was 50% in data set [3] (150 μM) and 80% in data set [1] (Formula A1 150 μM, 24 hours, MTT, mean of 6 wells). Besides, the viability at 24 h, 180 μM in data set [3] (180 μM) was 16%; in data set [1] (Formula A1 180 μM, 24 hours, MTT, mean of 6 wells), 29%. Moreover, the viability at 24 h, 230 μM in data set [3] (230 μM) turned out to be 17%; in data set [1] (Formula A1 230 μM, 24 hours, MTT, mean of 6 wells), 63%. Besides, the viability at 24 h, 253 μM stood at 19% in data set [3] (253 μM) and 28% in data set [1] (Formula A1 253 μM, 24 hours, MTT, mean of 6 wells). In addition, the viability at 24 h, 500 µM was found to be 22% in data set [3] (500 μM); 24% in data set [4] (500 μM); 11% in data set [1] (Formula A1 500 μM, 24 hours, MTT, mean of 6 wells). In addition, in data set [4] (200 μM), the viability at 24 h, 200 µM was 91%. In data set [4] (300 μM), the viability at 24 h, 300 µM was 58%. In data set [4] (400 μM), the viability at 24 h, 400 µM is 33%. Further, the IC50 with A549 was 197 µM.
